Laboratory results taken from patent publication US20060062747A1, “Use of sweetener acids for the microbiological stabilization of foodstuffs, cosmetic products, consumer goods and pharmaceutical productions” (Nutrinova Nutrition Specialties & Food Ingredients GmbH, priority 2002, published 2006).

Experiments:
[1] = Sensory testing of sweetener acids in foods and drinks; conditions: in vivo
Source text: Sweetener acids are the acids of known salts of high-intensity sweeteners such as acesulfame-K (=potassium salt of acesulfamic acid), sodium cyclamate or sodium saccharin. Sweetener acids which can be used are, for example, saccharin acid, cyclamic acid, glycyrrhicic acid and acesulfamic acid and also mixtures of two or more of these acids. Inventively preferred sweetener acids are acesulfamic acid, cyclamic acid and saccharin acid, and also mixtures of two or all three sweetener acids. On account of their low pKa of 1.5 to 2.5, the sweetener acids have never previously been considered as […]. […] The acid profile is balanced.
At the same time, the sweetener acids have, on a molar basis, a sweetening power equivalent to the corresponding sweetener salt. In addition to the described acid taste and sweet taste, no significant off-taste and aftertaste occur.

[2] = pH of the test solutions and drinks
testers = assay: Pairwise comparison test for identical acid taste
Source text: Pairwise comparison test with the question: Which sample is the more acid: (forced choice, n=13)
Pairwise comparison test with the question: Which sample is the more acid? (forced choice, n=15)

| pH ([2]; Example 1, identical acid taste solutions (Table 3)) | pH ([2]; Example 4, identical acid taste solutions (Table 9)) | pH ([2]; Example 3, identical acid taste solutions (Table 7)) | SMILES | time-intensity profile of the acid taste [1] | citric acid concentration of identical acid taste (testers; Example 1, vs 203 mg/l acesulfamic acid, citric acid + 250 mg/l acesulfame-K, n=13) [mg/L] | acetic acid concentration of identical acid taste (testers; Example 4, vs 203 mg/l acesulfamic acid, acetic acid + 250 mg/l acesulfame-K, n=14) [mg/L] | citric acid concentration of identical acid taste (testers; Example 3, vs 200 mg/l saccharin acid, citric acid + 225 mg/l saccharin sodium, n=15) [mg/L] |
| --- | --- | --- | --- | --- | --- | --- | --- |
| 3.07 | 3.07 |  | CC1=CC(=O)NS(=O)(=O)O1 [Acesulfamic acid] | comparable to that of malic acid | 137 | 190 |  |
|  |  | 3.05 | O=C1NS(=O)(=O)c2ccccc21 [Saccharin acid, o-benzosulfimide] |  |  |  | 100 |
